Measured values reported in patent US20240148664A1, “LIPID AND COMPOSITION” (SOGO PHARMACEUTICAL CO., LTD., priority 2021, published 2024).

Tests used:
[1] = Measurement of particle size, polydispersity index and zeta potential of lipid nanoparticle (Zetasizer); assay type: physicochemical; conditions: lipid nanoparticle containing siRNA; for Zeta potential (mV): pH 7.4 Tris-HCl; for Particle size (nm) / PDI: main lipid/DPPC/cholesterol=45/10/45; for Particle size (nm): Z-average in ultrapure water; for PDI: ultrapure water
Procedure: 30 μL of each of the dialyzed lipid nanoparticle-containing solutions obtained by the above operation was measured out, 800 μL of ultrapure water was added to dilute the lipid nanoparticle-containing solution, and the diluted preparation solution was used to measure the particle size (nm) and the polydispersity index (PDI) by using a Zetasizer (manufactured by Malvern Panalytical, Zetasizer nano Ultra). The particle size was evaluated by Z-average in ultrapure water. The zeta potential was measured by using pH 7.4 Tris-HCl as a dilute solution.

[2] = tested on: HT1080-EGFP (human/fibrosarcoma) cells; experiment: Evaluation of knockdown effect (GFP assay), Cell experiment 1; assay type: cell-based; conditions: lipid nanoparticle containing siRNA against EGFP; fluorescence intensity with control cells without lipid nanoparticle set at 100
Procedure: A cell experiment was carried out by using HT1080-EGFP (human/fibrosarcoma) cells in order to evaluate lipid nanoparticles encapsulating an siRNA produced by using the lipids of the Examples and the Comparative Examples. These cells are cells provided with a green fluorescent protein gene (EGFP). The expression of EGFP can be easily confirmed by measuring the fluorescence intensity of a solution in which the cells are lysed, and thus by acting lipid nanoparticles encapsulating an siRNA that suppresses the expression of EGFP and observing any decrease in fluorescence intensity, the performance of the lipid nanoparticles used can be evaluated. Hereinafter, the procedure of the cell experiment will be shown.
(§1) A. Provision of Cells • (i) A liquid medium (DMEM/Ham's F12, FBS+, P/S+) (FBS: fetal bovine serum, P/S: antibiotic) was taken out from a refrigerator and temperature-controlled in an incubator set at 37° C. • (ii) A cryotube containing the cells was taken out from a −80° C. freezer and thawed at once in an incubator set at 37° C. • (iii) A stock solution of the thawed cells was collected in a capped test tube. • (iv) The tube containing the cells was washed with the liquid medium, and the wash was also collected in the test tube. • (v) The tube was subjected to a centrifuge to precipitate the cells. • (vi) The supernatant was aspirated, and the liquid medium was added and gently tapped to disperse the cells. • (vii) A small amount of the cells-dispersed liquid medium was collected, and the number of cells was observed and counted under a microscope. • (viii) The cells were seeded in a 24-well plate such that the number of cells was 2×10^4 cells per well. For the plate for an LDH assay described later, the cells were seeded in a 96-well plate such that the number of cells was 4×10^3 cells per well. • (ix) The 24-well plate or the 96-well plate was placed in an incubator, and the cells were cultured for 24 hours under conditions of 37° C. and 5% CO2.
The produced lipid nanoparticles were introduced into cells. • (i) Fetal bovine serum (FBS) was added to a liquid medium (FBS-, P/S-) temperature-controlled as in (i) of A above, in such a way as to reach 10%. • (ii) A 24-well plate was taken out from an incubator, and the liquid medium supernatant in the 24-well plate was aspirated and washed with phosphate buffered saline (PBS). • (iii) 400 μL of the liquid medium produced in (i) above was added to the washed 24-well plate. In addition, 100 μL of an LNP solution having an adjusted concentration was added. • (iv) The 24-well plate was placed in the incubator, and the cells were cultured (for 24 hours). • (v) After 24 hours, the liquid medium supernatant in the 24-well plate was aspirated, and 500 μL of a liquid medium containing 10% FBS (FBS+/P/S+) was added. • (vi) The 24-well plate was placed in the incubator, and the cells were cultured for 24 hours under conditions of 37° C. and 5% CO2.
By carrying out a GFP assay, the EGFP expression level in cells was measured to evaluate the effect of knocking down the green fluorescent protein gene (EGFP) by lipid nanoparticles. • (i) A 24-well plate was taken out from an incubator and washed with PBS. • (ii) A 1% octylglucoside solution to which a protease inhibitor was added was added in order to disrupt cells. Stirring with a pipette lysed the cells. • (iii) The cell lysate was transferred to an Eppendorf tube and subjected to a centrifuge. • (iv) 150 μL of the supernatant was collected and added to a plate for fluorescence measurement. • (v) The fluorescence intensity was measured under conditions of an excitation wavelength of 485 nm and a fluorescence wavelength of 535 nm with a plate reader (manufactured by TECAN, Infinite M200). The fluorescence intensity was calculated with the fluorescence intensity of control cells to which no lipid nanoparticle was added set at 100.

[3] = siRNA / mRNA encapsulation rate of lipid nanoparticle (RiboGreen); assay type: physicochemical; conditions: siRNA encapsulation rate of lipid nanoparticle
Procedure: The siRNA encapsulation rate and the mRNA encapsulation rate of the lipid nanoparticle were obtained as follows. First, a surfactant (Sigma-Aldrich, Triton (registered trademark), X-100 (reducing type)) was added to the lipid nanoparticle-containing solution to disrupt the lipid nanoparticle to release the encapsulated siRNA or mRNA. The amounts of the lipid nanoparticle-containing solution and the surfactant were adjusted such that the siRNA or the mRNA was 2 pmol and the surfactant was 1% in 40 μL of the solution after adding the surfactant to the lipid nanoparticle-containing solution. Next, the RiboGreen reagent (reagent that reacts with siRNA to emit fluorescence, manufactured by Thermo Fisher Scientific, Quant-iT (registered trademark) RiboGreen (registered trademark) RNA Assay Kit) was added to the solution, and the fluorescence intensity was measured under conditions of an excitation wavelength of 480 nm and a fluorescence wavelength of 520 nm with a fluorescence intensity meter (manufactured by TECAN, Infinite M200). Specifically, 75 μL of the RiboGreen reagent diluted to 1/2000 was added to a diluted solution obtained by adding 65 μL of citrate buffer to 10 μL of the solution, and the fluorescence intensity was measured. This makes it possible to relatively measure the total amount of the siRNA or the total amount of the mRNA present in the solution.
Subsequently, the RiboGreen reagent was added to the lipid nanoparticle-containing solution without adding a surfactant, and the fluorescence intensity was measured in the same manner with a fluorescence intensity meter. By not adding a surfactant, it is possible to relatively measure the amount of the siRNA or the mRNA free in the solution without being encapsulated in the lipid nanoparticle.
Then, the fluorescence intensity obtained from the solution to which the surfactant was added obtained as described above was fluorescence intensity a, and the fluorescence intensity thus obtained from the solution to which no surfactant was added obtained as described above was fluorescence intensity b, and according to the expression (a−b)/a×100, the siRNA encapsulation rate (%) or the mRNA encapsulation rate (%) of the lipid nanoparticle was obtained. Each of fluorescence intensity a and fluorescence intensity b is a value obtained by subtracting a blank from the arithmetic average value of the results of three measurements for each solution. The blank was measured by carrying out the same operation on a well containing water containing no cell or lipid nanoparticle.

[4] = tested on: HT1080-EGFP (human/fibrosarcoma) cells; experiment: Evaluation of toxicity: LDH assay; assay type: cell-based; conditions: lipid nanoparticle containing siRNA; absorbance relative to control cells without lipid nanoparticle set at 1.00
Procedure: as §1
The introduction of lipid nanoparticles into cells for an LDH assay described later was carried out as follows. • (i) A 96-well plate was taken out from an incubator. • (ii) The liquid medium supernatant in the 96-well plate was aspirated and washed with phosphate buffered saline (PBS). • (iii) 160 μL of a liquid medium containing 10% FBS (FBS+/P/S+) was added to the washed 96-well plate. In addition, 40 μL of an LNP solution having an adjusted concentration was added. • (iv) The 96-well plate was placed in the incubator, and the cells were cultured for 24 hours under conditions of 37° C. and 5% CO2.
For Examples 1 to 9, a CCK-8 assay or an LDH assay was carried out to measure the metabolic activity of viable cells and relatively quantify the number of surviving cells to evaluate the toxicity of lipid nanoparticles.
An LDH assay was carried out by using a viable cell counting kit (DOJINDO LABORATORIES, Cytotoxicity LDH Assay Kit-WST) as follows. • (i) 20 μL of a lysis buffer was added to each of positive control wells and incubated at 37° C. for 30 minutes in an incubator. • (ii) 100 μL of the supernatant was taken from each well and transferred to a 96-well plate for measurement. • (iii) 100 μL of the reagent mixture attached to the kit was added to all the wells, and a color reaction was carried out for 30 minutes at room temperature with exclusion of light. • (iv) 50 μL of the stop solution reagent attached to the kit was added to all the wells. • (v) The 96-well plate was measured under conditions of a measurement wavelength of 490 nm and a target wavelength of 630 nm with a plate reader (manufactured by TECAN, Infinite M200) to calculate the absorbance. The absorbance was calculated with the absorbance of control cells to which no lipid nanoparticle was added set at 1.00. When the obtained value was 0.50 or less, a rating of double-circle (excellent) was given, when the obtained value was more than 0.50 and 1.0 or less, a rating of circle (good) was given, when the obtained value was more than 1.0 and less than 6.0, a rating of triangle (fair) was given, and when the obtained value was 6.0 or more, a rating of X-mark (poor) was given.

Compound | Zeta potential (mV) [1] [mV] | Particle size (nm) [1] [nm] | PDI [1] | Encapsulation rate (%) [3] [%] | GFP Assay [2] | LDH Assay [4]
CCCCCCCC/C=C\CCCCCCCCC(CCCCCCC/C=C\CCCCCCCC)OC(=O)C(N)C(C)O (stereo not drawn) [Comparative Example 1, (9Z,27Z)-hexatriaconta-9,27-dien-18-yl 2-amino-3-hydroxybutanoate, reference compound] | 27.8 |  |  |  |  | 
CCCCCCCC/C=C\CCCCCCCCC(CCCCCCC/C=C\CCCCCCCC)OC(=O)[C@@H](N)CCCCN (stereo partly drawn) [Comparative Example 4, (9Z,27Z)-hexatriaconta-9,27-dien-18-yl lysinate, reference compound] | 26.5 | 147.5 | 0.063 | 99 | 86 | 
CCCCC/C=C\CCCC(CC/C=C\CCCCC)OC(=O)C(N)CCCCN (stereo not drawn) [Comparative Example 5, (6Z,14Z)-icosa-6,14-dien-10-yl lysinate, reference compound] | 50.8 | 324.5 | 0.731 | 100 |  | 
CCCCCC/C=C\CCCCCCCCC(CCCCCCC/C=C\CCCCCC)OC(=O)C(N)CCCCN (stereo not drawn) [Comparative Example 6, (7Z,25Z)-dotriaconta-7,25-dien-16-yl lysinate, reference compound] | 27.5 | 212.1 | 0.022 | 99 |  | 
CCCCCCCC/C=C\CCCCCCCCC(CCCCCCC/C=C\CCCCCCCC)OC(=O)C(Cc1c[nH]cn1)NC(=O)C(N)CCCNC(=N)N (stereo not drawn) [Example 3, (9Z,27Z)-hexatriaconta-9,27-dien-18-ylarginylhistidinate] |  |  |  |  | 22 | ◯ (when the obtained value was more than 0.50 and 1.0 or less, a rating of circle (good) was given)

Now from value to molecule, other results behind:

Zeta potential (mV) [1] [mV] | Particle size (nm) [1] [nm] | PDI [1] | Encapsulation rate (%) [3] [%] | Compound | GFP Assay [2] | LDH Assay [4]
21.0 | 149.8 | 0.021 | 99 | CCCCCCCC/C=C\CCCCCCCCCCCCC(CCCCCCCCCCC/C=C\CCCCCCCC)OC(=O)[C@@H](N)CCCCN (stereo partly drawn) [Comparative Example 7, (9Z,35Z)-tetratetraconta-9,35-dien-22-yl lysinate, reference compound] |  | 
29.7 | 233.1 | 0.187 | 100 | CC/C=C\CCC(CCCCCCC/C=C\CCCCCC)OC(=O)[C@@H](N)CCCCN (stereo partly drawn) [Comparative Example 8, (3Z,15Z)-docosa-3,15-dien-7-yl lysinate, reference compound] |  | 
32.7 | 759.4 | 0.508 | 100 | CC/C=C\CCC(CCCCCCCCCCC/C=C\CCCCCCCC)OC(=O)[C@@H](N)CCCCN (stereo partly drawn) [Comparative Example 9, (3Z,19Z)-octacosa-3,19-dien-7-yl lysinate, reference compound] |  | 
36.8 | 103.6 | 0.095 | 98 | CCCCC/C=C\C/C=C\CCCCCCCCC(CCCCCCC/C=C\C/C=C\CCCCC)OC(=O)C(NC(=O)C(N)CCCNC(=N)N)C(C)O (stereo not drawn) [Example 10, (6Z,9Z,27Z,30Z)-hexatriaconta-6,9,27,30-tetraen-18-yl 2-(2-amino-5-guanidinopentanamido)-3-hydroxybutanoate] | 11 | 
